Columns and labels:
[1] = system: PKB Ser473 phosphorylation in Rat1-myr-HA-p110 delta cells; assay: Reverse protein array assay, PKB Ser473 phosphorylation in Rat1-myr-p110 delta cells; assay type: cell-based; details: read-out: p-PKB IC50
How it was run: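 Lysates were arrayed at four dilutions, and phospho-PKB Ser473 was quantified by relative fluorescence signal. They came from Rat1-myr-HA-p110 alpha, beta or delta cells exposed for 30 min at 37 °C to an 8-point compound series with 0.2% DMSO constant.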

[2] = target: T1, PI3K beta (Homo sapiens, UniProt P42338); assay: PI3K beta kinase assay (Kinase-Glo luminescence); assay type: biochemical
T1 construct: for the full-length p110-b subunit are generated and fused by overlapping PCR; p85(iSH2) fusion partner (see partner chain) (N); His tag (C); made in house; host or cells: baculovirus; Tn5 (Trichoplusia ni) or TiniPro insect cells
T1 sequence (P42338 with tags, fused parts or gaps limits assumed): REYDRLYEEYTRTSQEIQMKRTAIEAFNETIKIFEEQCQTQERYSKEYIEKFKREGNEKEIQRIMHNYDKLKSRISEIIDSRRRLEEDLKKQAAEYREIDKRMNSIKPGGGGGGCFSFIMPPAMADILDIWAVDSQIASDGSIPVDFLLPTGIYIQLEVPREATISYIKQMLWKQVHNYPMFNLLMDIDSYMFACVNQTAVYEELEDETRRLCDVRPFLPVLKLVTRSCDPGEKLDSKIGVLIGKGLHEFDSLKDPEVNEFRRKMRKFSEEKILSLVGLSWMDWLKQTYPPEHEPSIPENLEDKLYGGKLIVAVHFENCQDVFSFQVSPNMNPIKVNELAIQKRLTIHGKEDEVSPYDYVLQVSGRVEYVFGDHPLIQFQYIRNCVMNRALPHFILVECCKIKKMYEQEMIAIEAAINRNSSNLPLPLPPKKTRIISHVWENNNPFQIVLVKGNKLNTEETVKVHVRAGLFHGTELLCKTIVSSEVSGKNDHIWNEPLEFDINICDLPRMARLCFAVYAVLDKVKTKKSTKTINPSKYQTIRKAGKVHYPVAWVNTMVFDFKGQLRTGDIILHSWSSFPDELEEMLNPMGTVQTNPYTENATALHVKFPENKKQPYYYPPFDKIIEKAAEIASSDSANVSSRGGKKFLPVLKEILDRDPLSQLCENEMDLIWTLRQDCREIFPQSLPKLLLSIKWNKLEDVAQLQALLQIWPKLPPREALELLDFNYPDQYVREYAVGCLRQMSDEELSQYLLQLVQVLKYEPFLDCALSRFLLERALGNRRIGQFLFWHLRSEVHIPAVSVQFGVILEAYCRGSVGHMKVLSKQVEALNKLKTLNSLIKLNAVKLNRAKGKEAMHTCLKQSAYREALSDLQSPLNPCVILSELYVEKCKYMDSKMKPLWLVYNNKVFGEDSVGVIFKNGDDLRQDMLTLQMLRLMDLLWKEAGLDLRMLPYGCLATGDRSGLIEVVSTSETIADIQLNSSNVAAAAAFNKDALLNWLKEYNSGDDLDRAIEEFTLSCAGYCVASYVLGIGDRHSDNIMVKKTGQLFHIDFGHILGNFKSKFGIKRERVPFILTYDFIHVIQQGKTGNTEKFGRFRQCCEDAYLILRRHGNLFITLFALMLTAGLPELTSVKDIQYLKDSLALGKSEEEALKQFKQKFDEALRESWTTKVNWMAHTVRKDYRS
How it was run: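 p110β full-length/p85 iSH2 construct (BV-949), 25 nM, with 1 μM ATP and 10 μg/mL phosphatidylinositol in 10 mM Tris pH 7.5, 3 mM MgCl2, 50 mM NaCl, 0.05% CHAPS, 1 mM DTT. 60 min at room temperature; ATP remaining read by Kinase-Glo luminescence. IC50 from 8-point four-parameter logistic fit.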

SMILES	IC50 [1] [nM]	IC50 [2] [nM]
COc1ccc(-c2ccc3ncc4c(c3c2)n(-c2cc(C)nn2C)c(=O)n4C)cn1 [Example 2.3, 1-(2,5-Dimethyl-2H-pyrazol-3-yl)-8-(6-methoxy-pyridin-3-yl)-3-methyl-1,3-dihydro-imidazo[4,5-c]quinolin-2-one]	240	180
CCOc1ccc(-c2ccc3ncc4c(c3c2)n(-c2ccnn2CC)c(=O)n4C)cn1 [Example 3.4, 8-(6-Ethoxy-pyridin-3-yl)-1-(2-ethyl-2H-pyrazol-3-yl)-3-methyl-1,3-dihydro-imidazo[4,5-c]quinolin-2-one]	418	–
Cc1nn(CC(=O)N(C)C)cc1-n1c(=O)n(C)c2cnc3ccc(-c4ccccc4)cc3c21 [Example 37.3, N,N-Dimethyl-2-[3-methyl-4-(3-methyl-2-oxo-8-phenyl-2,3-dihydro-imidazo[4,5-c]quinolin-1-yl)-pyrazol-1-yl]-acetamide]	362	–
CCN(C)C(=O)Cn1cc(-n2c(=O)n(C)c3cnc4ccc(-c5cncc(OC(C)C)c5)cc4c32)c(C)n1 [Example 58.5, N-Ethyl-2-{4-[8-(5-isopropoxy-pyridin-3-yl)-3-methyl-2-oxo-2,3-dihydro-imidazo[4,5-c]quinolin-1-yl]-3-methyl-pyrazol-1-yl}-N-methyl-acetamide]	357	69
COc1ncc(-c2ccc3ncc4c(c3c2)n(-c2cn(C)nc2C)c(=O)n4C)cc1NC(C)=O [Example 64, N-{5-[1-(1,3-Dimethyl-1H-pyrazol-4-yl)-3-methyl-2-oxo-2,3-dihydro-1H-imidazo[4,5-c]quinolin-8-yl]-2-methoxy-pyridin-3-yl}-acetamide]	157	322
Cc1nn(C)cc1-n1c(=O)n(C)c2cnc3ccc(-c4ccc(-n5cccn5)nc4)cc3c21 [Example 79, 1-(1,3-Dimethyl-1H-pyrazol-4-yl)-3-methyl-8-(6-pyrazol-1-yl-pyridin-3-yl)-1,3-dihydro-imidazo[4,5-c]quinolin-2-one]	16	–
CCNc1cc(-c2ccc3ncc4c(c3c2)n(-c2c(C)nn(CC(=O)N(C)C)c2C)c(=O)n4C)cnc1C [Example 87.5, 2-{4-[8-(5-Ethylamino-6-methyl-pyridin-3-yl)-3-methyl-2-oxo-2,3-dihydro-imidazo[4,5-c]quinolin-1-yl]-3,5-dimethyl-pyrazol-1-yl}-N,N-dimethyl-acetamide]	634	335
CCNc1cc(-c2ccc3ncc4c(c3c2)n(-c2c(C)nn(CCOC)c2C)c(=O)n4C)cnc1OC [Example 90.2, 8-(5-Ethylamino-6-methoxy-pyridin-3-yl)-1-[1-(2-methoxy-ethyl)-3,5-dimethyl-1H-pyrazol-4-yl]-3-methyl-1,3-dihydro-imidazo[4,5-c]quinolin-2-one]	46	115
Cc1nn(C)cc1-n1c(=O)n(C)c2cnc3ccc(-c4cnc5cc[nH]c5c4)cc3c21 [Example 99, 1-(1,3-Dimethyl-1H-pyrazol-4-yl)-3-methyl-8-(1H-pyrrolo[3,2-b]pyridin-6-yl)-1,3-dihydro-imidazo[4,5-c]quinolin-2-one]	19	33
COc1ncc(-c2ccc3ncc4c(c3c2)n(-c2cn(C)nc2C)c(=O)n4C)cc1C(N)=O [Example 125.2, 5-[1-(1,3-Dimethyl-1H-pyrazol-4-yl)-3-methyl-2-oxo-2,3-dihydro-1H-imidazo[4,5-c]quinolin-8-yl]-2-methoxy-nicotinamide]	61	93
CCN(C)C(=O)Cn1cc(-n2c(=O)n(C)c3cnc4ccc(-c5ccccc5)cc4c32)c(C)n1 [Example 135, N-Ethyl-N-methyl-2-[3-methyl-4-(3-methyl-2-oxo-8-phenyl-2,3-dihydro-imidazo[4,5-c]quinolin-1-yl)-pyrazol-1-yl]-acetamide]	363	–
CCN(C)C(=O)Cn1cc(-n2c(=O)n(C)c3cnc4ccc(-c5cnc(N6CCCC6)nc5)cc4c32)c(C)n1 [Example 140.1, N-Ethyl-N-methyl-2-{3-methyl-4-[3-methyl-2-oxo-8-(2-pyrrolidin-1-yl-pyrimidin-5-yl)-2,3-dihydro-imidazo[4,5-c]quinolin-1-yl]-pyrazol-1-yl}-acetamide]	307	–
